The source of these data is patent US20250163057A1, “DCN-1 MODULATING COMPOUNDS AND METHODS OF USE THEREOF” (Cellarity, Inc., priority 2023, published 2025).

Usually pIC50 stands for the IC50 on a negative log10 scale, so that one unit is a factor of ten. What is called pEC50 is the EC50 on a negative log10 scale, so that one unit is a factor of ten. The low end stands for a high EC50, the high end for a low EC50. In general, koff refers to a measure of how fast the partners let go of each other. A higher koff goes with a short-lived complex. A word on the half-life: it is the time in which the quantity being followed falls by half. Lower therefore signals rapid decline. As usually defined, the IC50 is the point on the concentration scale where inhibition reaches its midpoint.

Data set [1] deals with Cullin-3 (CUL3) neddylation. Kind of data set: AlphaLISA assay for Cullin-3 (CUL3) neddylation in TF 1 cells. Type of data set: cell-based. Particulars: 3 hours treatment. The gist of the method: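 Neddylated CUL3 was quantified by AlphaLISA in lysates of TF 1 cells exposed for 3 h to test compound in IMDM without supplements. Percent inhibition set between vehicle and 1 μM DI-1548 positive control; IC50 derived by Hill-equation fitting of dose-response curves.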

Another data set addresses DCN1 protein (Homo sapiens (Human), UniProt Q96GG9). Put plainly: Intact Protein MS Analysis with the RapidFire-TOF System (covalent adduct formation). Type of data set: binding. Particulars: MS Emax; 400 nM DCN1, 3 hours at room temperature. The method, boiled down:
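Tag-cleaved human DCN1 (400 nM) expressed in E. coli, in 25 mM Tris-HCl, 200 mM NaCl, 1 mM DTT, was incubated with 11 compound concentrations for 3 h at room temperature and quenched with 0.2% formic acid. Intact-protein Q-TOF MS with deconvolution detected the compound adduct mass.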

The next data set concerns fetal hemoglobin protein. Kind of data set: HbF HPLC Cell Culture Assay. Type of data set: cell-based. Particulars: for pEC50: 336 h, HbF induction, Day 14 of culture; for Hemoglobin HPLC Ymax obs (%): relative to a control compound. The procedure:
A Cell Culture Assay was performed to evaluate the ability of compounds to induce fetal hemoglobin in a cell culture. The amount fetal hemoglobin protein induced was measured by HPLC.
Cell culture began on Day −4 (thaw day). Thaw buffer was prepared by sterile filtering 6 mL of Human Serum Albumin and 144 mL of PBS to make sterile 1% I/PBS. Cells were removed from liquid nitrogen storage and mostly thawed in a 37° C. water bath. Once the ice in the cryovials was melted, cells were transferred quickly into a 50 mL conical tube. Cryovial was rinsed once with thaw buffer and buffer was transferred over to the conical tube as well. Next, doubling volumes of thaw buffer was added to the conical and gently swirled for ˜30 seconds to one minute (for example: 2 mL was added and swirled, then 4 mL, then 8 mL, and so on) until the volume in the conical is 32 mL. Cells and buffer were centrifuged at 300G for 8 minutes, and the supernatant was aspirated. Another 32 mL of thaw buffer was added slowly, swirling the tube. The tube was again centrifuged at 300G for 8 minutes and the supernatant was aspirated. Cells were counted by resuspending in 1 mL of expansion media and counting with AOPI to determine the concentration of cells/mL.
On day 2, Passage & Treatment Day, each cell culture well was counted. Next fresh CD34 Expansion Media was made which contained StemSpan SFEM, CC100 and TPO all from StemCell technologies. Appropriate volume of cells was collected, centrifuged at 300 g and resuspended in fresh media. Cells were plated in treatment format at a density of 200,000 cells/ml, 25,000 cells/well. Finally, they were treated with test compounds as well as positive and negative controls.
On Days 0, 3 & 5 the same process was carried out. First, each cell culture well was counted. Next Phase 1 Erythroid Differentiation Media was freshly made, which contained StemSpan SFEM, 2.5 U/ml EPO, 0.5 mg/ml Holo-TF, 1× Glutamax, 5 μl/ml chemically defined lipid mixture, 10 ng/ml insulin, 50 ng/ml SCF, 10 ng/ml IL-3. Appropriate volume of cells was collected, centrifuged at 300 g and resuspended in fresh media. Cells should now be in fresh wells at a density of 100,000 cells/ml. 60,000 cells, 60,000 cells and 100,000 cells for days 0, 3, 5 respectively. Finally, fresh compound was added to each well at each timepoint (Days 0, 3 & 5).
On Day 7 media and cell culture density changes. Each cell culture well was counted. Next, Phase 2 Erythroid Differentiation Media was freshly made, which contains StemSpan SFEM, 2.5 U/ml EPO, 0.5 mg/ml Holo-TF, 1× Glutamax, 5 μl/ml chemically defined lipid mixture, 10 ng/ml insulin, 50 ng/ml SCF. Appropriate volume of cells was collected, centrifuged at 300 g and resuspended in fresh media. Cells were plated in fresh wells at a density of 500,000 cells/ml, 300,000 cells/well. Finally, fresh compound was added to each well at Day 7 timepoint.
On Day 10 media formulation is once again changed. Each cell culture well was counted. Fresh Phase 3 Erythroid Differentiation Media was made which contains StemSpan SFEM, 2.5 U/ml EPO, 0.5 mg/ml Holo-TF, 1× Glutamax, 5 μl/ml chemically defined lipid mixture, 10 ng/ml insulin. Appropriate volume of cells was collected, centrifuged at 300 g and resuspended in fresh media. Cells were plated in fresh wells at a density of 500,000 cells/ml, 500,000 cells/well. Finally, fresh compound was added to each well at Day 10 timepoint.
On Day 12 the cell density is once again changed. Each cell culture well was counted. Fresh Phase 3 Erythroid Differentiation Media was made. Appropriate volume of cells was collected, centrifuged at 300 g and resuspended in fresh media. Cells were plated in fresh wells at a density of 1,000,000 cells/ml, 1,000,000 cells/well. Finally fresh compound was added to each well.
Day 14 (18th day of experiment) refers to the terminal day of culture. Each cell culture well was counted. Next between 150K and 650K cells were placed in a uniquely labeled 1.5 ml standard tube. […]

For data set [2], the target named is T1, DCN1 (DCUND1) protein PONY domain (Homo sapiens (Human), UniProt Q96GG9). Put plainly: Off-rate measurement of reversible covalent molecules (jump dilution TR-FRET with Cy5 probe). Type of data set: binding. Particulars: for Category: binding mode category from off-rate assay; for residence time: inverse of rate constant K; for residence time / half-life: jump dilution TR-FRET; for koff: jump dilution, Cy5 covalent probe 150 nM, TR-FRET; for half-life: ln(2)/K. From the text: A typical covalent compound is assumed to stay bound to a protein for at least the life of that protein in the cell. In reality, there is a range of how long a covalent compounds remains bound before a reverse reaction takes place. Thus, some covalent bonds can be labeled as reversible as their reverse reaction takes place in a measurable amount of time under physiological conditions. The assay capitalizes on the range of covalent binders by using a high affinity covalent binder as a probe to displace the more reversible binders in an adaptation of the jump dilution method.
T1 sequence (Q96GG9 60-248): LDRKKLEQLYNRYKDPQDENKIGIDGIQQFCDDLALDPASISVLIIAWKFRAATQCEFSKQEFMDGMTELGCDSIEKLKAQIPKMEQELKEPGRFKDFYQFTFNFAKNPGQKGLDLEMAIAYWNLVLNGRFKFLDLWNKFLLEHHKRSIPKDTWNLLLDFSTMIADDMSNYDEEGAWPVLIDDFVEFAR
In this version of the jump dilution method, the increase in covalent probe binding over time was measured through a TR-FRET reaction between the covalent probe and the biotinylated target protein.
The recombinant form of the DCN1 (DCUND1) protein PONY domain was produced using an E. coli expression system at Viva Biotech (China). The DCN1 protein was biotinylated (EZ sulfo-NHS-LC-biotin; Thermofisher) for labeling with streptavidin terbium (Tb) cryptate in the reaction. This biotinylated protein was used in two forms of the TR-FRET assay as described below.
The off-rate measurement is executed in two steps based on the jump dilution method. […] The greatest dilution allowed within the constraints of the assay was chosen. These factors allow a competitive advantage for the covalent probe to replace the test compound when that compound releases from the target protein. The actual measure is the rate of increased TR-FRET signal as the covalent probe replaces the test compound over time. […] The resulting time dependent curve of the TR-FRET signal is fit to the following equation:
Y=Y0+(Plateau−Y0)*(1−exp(−K*x))
K is the rate constant (1/unit of time). The residence time is defined as the inverse of K, the rate constant. The half-life is calculated as ln(2)/K.
(In general: TR-FRET usually uses a lanthanide donor and a delayed reading to cut background.)

The target in data set [3] is T1, DCN1 (DCUND1) protein PONY domain. Put plainly: TR-FRET assay, DCN1 binding with FAM-labeled probe. The conditions noted are these: for IC50: TR FRET IC50 1 hr (nM). The gist of the method:
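Tb-DCN1 PONY domain (E. coli, biotin/streptavidin-Tb); FAM-labelled non-covalent inhibitor probe; TritonX buffer, 200 mM NaCl; 5 nM DCN1 + 20 nM probe or 0.31 nM DCN1 + 900 nM total probe; 0.1% DMSO; TR-FRET read 1, 5, 24 hrs.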

The mark [4] stands for this setting: 24 hr after treatment with compound, read-out: TR FRET IC50 24 hr.
Where [5] appears, read: read-out: TR FRET IC50 1 hr, 1 hr after treatment with compound.
Setting [6] is: 1 hr after treatment with compound.

pEC50, pIC50: −log10 of the molar value. Read-outs that look alike come from different tables or passages of the source.

Chain of DCN1 protein (Q96GG9 whole entry): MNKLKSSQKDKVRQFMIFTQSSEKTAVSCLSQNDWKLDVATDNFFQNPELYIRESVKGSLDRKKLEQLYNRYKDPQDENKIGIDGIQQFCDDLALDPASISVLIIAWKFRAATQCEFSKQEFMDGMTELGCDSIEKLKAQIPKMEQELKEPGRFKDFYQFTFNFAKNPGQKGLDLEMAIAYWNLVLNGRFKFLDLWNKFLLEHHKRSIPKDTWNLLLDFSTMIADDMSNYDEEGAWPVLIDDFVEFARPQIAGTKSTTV

For `CCN1C(=O)[C@@H](NC(=O)c2cccc(C(F)(F)F)c2)[C@@H](c2ccc(F)cc2)c2c(C(=O)N(C)[C@@H](C#N)C3COC3)nn(-c3ccccc3)c21` (single isomer, unassigned) [Compound I-294], the pIC50 in data set [1] is at least 7.00. For the same compound, the “% Adduct Formation” value on DCN1 protein was “+++ (MS Emax % adduct formation greater than 80.0 and less than or equal to 100.0)”. In the data set with fetal hemoglobin protein, the negative-log EC50 (pEC50) was 6.70 to 7.30; the “Hemoglobin HPLC Ymax obs (%)” value is “++ (Hemoglobin HPLC Ymax greater than 65.0 and less than or equal to 100.0)”.

`CCN1C(=O)[C@@H](NC(=O)c2cccc(C(F)(F)F)c2)[C@@H](c2ccc(F)cc2)c2c(C(=O)N3CCNC[C@@H]3C#N)nn(-c3ccccc3)c21` [Compound I-281]: in the data set on fetal hemoglobin protein, the pEC50 was at least 7.30; the “Hemoglobin HPLC Ymax obs (%)” value is “++ (Hemoglobin HPLC Ymax greater than 65.0 and less than or equal to 100.0)”.

In the case of `CCN1C(=O)[C@@H](NC(=O)c2cccc(C(F)(F)F)c2)[C@@H](c2ccc(F)cc2)c2c(C(=O)N(C)[C@@H](C#N)CCN(C)C)nn(-c3ccccc3)c21` (relative stereo) [Compound I-304, (4S,5S)—N-[(1R*)-1-cyano-3-(dimethylamino)propyl]-7-ethyl-4-(4-fluorophenyl)-N-methyl-6-oxo-1-phenyl-5-[3-(trifluoromethyl)benzamido]-4H,5H-pyrazolo[3,4-b]pyridine-3-carboxamide], the “% Adduct Formation” value on DCN1 protein was “+++ (MS Emax % adduct formation greater than 80.0 and less than or equal to 100.0)”. For the same compound, the “Hemoglobin HPLC Ymax obs (%)” value in the data set on fetal hemoglobin protein was “++ (Hemoglobin HPLC Ymax greater than 65.0 and less than or equal to 100.0)”.

On to `CCN1C(=O)[C@@H](NC(=O)c2cccc(C(F)(F)F)c2)[C@@H](c2ccc(F)cc2)c2c(C(=O)N3CCS(=O)(=O)C[C@H]3C#N)nn(C3CCOCC3)c21` (mixture of isomers) [Compound I-436], for which the pIC50 in data set [1] (Homo sapiens, TF-1, 3 h) is at least 7.00. In data set [2], the Category result is recorded as “reversible covalent”, the residence time amounted to 76.7 min, the dissociation rate constant (koff) is 0.000238 s⁻¹ and the half-life worked out at 0.8857 h. Moreover, the negative-log IC50 (pIC50) in data set [3] (setting [4]) is at least 6.70. In data set [3] (setting [5]), the negative logarithm of the IC50 (pIC50) was at least 6.70.

In turn, `CCN1C(=O)[C@@H](NC(=O)c2cccc(C(F)(F)F)c2)[C@@H](c2ccc(F)cc2)c2c(C(=O)N3CC[C@H]3C#N)nn(C3CCOCC3)c21` [Compound I-384] showed a pIC50 in data set [1] (Homo sapiens, TF-1, 3 h) of at least 7.00. In addition, the “% Adduct Formation” value at DCN1 protein is “+ (MS Emax % adduct formation greater than or equal to 0.0 and less than or equal to 30.0)”. In addition, in data set [2], the Category entry is listed as “reversible covalent”, the residence time was 184 min, the off-rate constant (koff) was 9.21e-05 s⁻¹ and the half-life came to 2.122 h. For the same compound, the pIC50 in data set [3] (setting [4]) is at least 6.70. For the same compound, in data set [3] (setting [5]), the negative logarithm of the IC50 (pIC50) is at least 6.70.

As to `CCN1C(=O)[C@@H](NC(=O)c2cccc(C(F)(F)F)c2)[C@@H](c2ccc(F)cc2)c2c(C(=O)N(C)[C@@H](C#N)CCN(C)C)nn(-c3ccccc3)c21` (single isomer, unassigned) [Compound I-304, (4S,5S)—N-[(1R*)-1-cyano-3-(dimethylamino)propyl]-7-ethyl-4-(4-fluorophenyl)-N-methyl-6-oxo-1-phenyl-5-[3-(trifluoromethyl)benzamido]-4H,5H-pyrazolo[3,4-b]pyridine-3-carboxamide], in data set [1] (Homo sapiens, TF-1, 3 h), the pIC50 is at least 7.00. Also, in the data set with fetal hemoglobin protein, the pEC50 is at least 7.30.

With `CCN1C(=O)[C@@H](NC(=O)c2cccc(C(F)(F)F)c2)[C@@H](c2ccc(F)cc2)c2c(C(=O)N3CCC[C@H]3C#N)nn(-c3ccccc3)c21` (racemic) [Compound I-34], the pIC50 in data set [1] (Homo sapiens, TF-1, 3 h) was at least 7.00; in data set [3] (setting [4]), at least 6.70. Moreover, in the data set with fetal hemoglobin protein, the pEC50 is under 6.70. In addition, the IC50 in data set [3] (setting [6]) is at most 200 nM.

For `CCN1C(=O)[C@@H](NC(=O)c2cccc(C(F)(F)F)c2)[C@@H](C2CC2)c2c(C(=O)N3CCOC[C@H]3C#N)nn(C3CCOCC3)c21` [Compound I-381], the “% Adduct Formation” value on DCN1 protein was “+++ (MS Emax % adduct formation greater than 80.0 and less than or equal to 100.0)”. In addition, in data set [2], the Category result is listed as “reversible covalent”, the residence time was found to be 297 min, the off-rate constant (koff) is 5.62e-05 s⁻¹ and the half-life worked out at 3.427 h. In data set [3] (setting [4]), the negative logarithm of the IC50 (pIC50) was at least 6.70. Also, the pIC50 in data set [3] (setting [5]) was at least 6.70.

On to `CCN1C(=O)[C@@H](NC(=O)c2cccc(C(F)(F)F)c2)[C@@H](C2CC2)c2c(C(=O)N3CCC[C@H]3C#N)nn(C3CCOCC3)c21` [Compound I-348], for which the negative logarithm of the IC50 (pIC50) in data set [1] (Homo sapiens, TF-1, 3 h) was at least 7.00; in data set [3] (setting [4]) it was at least 6.70. In addition, the “% Adduct Formation” value on DCN1 protein was “++ (MS Emax % adduct formation greater than 30.0 and less than or equal to 80.0)”. Also, the Category result in data set [2] is on record as “slow reversible”. The IC50 in data set [3] (setting [6]) is 200 to 1000 nM.
